The first data set has as its target T1, hT1R2/R3 (Homo sapiens, UniProt Q7RTX0+Q8TE23).
T1 construct: expressed in transfected cells; host or cells: 'hT1R2/R3-mammalian Gal5 cells'
T1 sequence (Q8TE23 20-839): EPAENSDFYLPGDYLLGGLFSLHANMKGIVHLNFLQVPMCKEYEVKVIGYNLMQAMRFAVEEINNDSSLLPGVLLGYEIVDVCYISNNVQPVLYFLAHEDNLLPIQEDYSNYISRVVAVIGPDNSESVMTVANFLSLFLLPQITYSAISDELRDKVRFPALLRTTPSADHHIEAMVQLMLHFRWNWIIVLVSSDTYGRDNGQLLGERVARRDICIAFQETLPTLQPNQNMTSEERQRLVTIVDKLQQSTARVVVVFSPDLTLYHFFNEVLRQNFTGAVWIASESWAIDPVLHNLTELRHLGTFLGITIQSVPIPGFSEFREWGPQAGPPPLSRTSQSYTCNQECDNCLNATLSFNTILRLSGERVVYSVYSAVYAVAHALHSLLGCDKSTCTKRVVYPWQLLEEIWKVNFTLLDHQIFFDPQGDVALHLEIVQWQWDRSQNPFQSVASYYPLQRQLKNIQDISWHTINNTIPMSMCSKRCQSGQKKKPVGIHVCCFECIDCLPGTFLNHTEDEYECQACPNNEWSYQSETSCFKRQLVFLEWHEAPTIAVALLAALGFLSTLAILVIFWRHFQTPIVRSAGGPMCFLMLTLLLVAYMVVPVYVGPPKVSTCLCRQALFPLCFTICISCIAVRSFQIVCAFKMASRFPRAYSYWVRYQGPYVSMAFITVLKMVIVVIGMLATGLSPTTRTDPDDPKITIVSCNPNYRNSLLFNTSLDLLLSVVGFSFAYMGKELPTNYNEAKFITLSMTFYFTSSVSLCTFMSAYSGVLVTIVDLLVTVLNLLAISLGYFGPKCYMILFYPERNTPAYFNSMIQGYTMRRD
T1 sequence (Q7RTX0 21-852): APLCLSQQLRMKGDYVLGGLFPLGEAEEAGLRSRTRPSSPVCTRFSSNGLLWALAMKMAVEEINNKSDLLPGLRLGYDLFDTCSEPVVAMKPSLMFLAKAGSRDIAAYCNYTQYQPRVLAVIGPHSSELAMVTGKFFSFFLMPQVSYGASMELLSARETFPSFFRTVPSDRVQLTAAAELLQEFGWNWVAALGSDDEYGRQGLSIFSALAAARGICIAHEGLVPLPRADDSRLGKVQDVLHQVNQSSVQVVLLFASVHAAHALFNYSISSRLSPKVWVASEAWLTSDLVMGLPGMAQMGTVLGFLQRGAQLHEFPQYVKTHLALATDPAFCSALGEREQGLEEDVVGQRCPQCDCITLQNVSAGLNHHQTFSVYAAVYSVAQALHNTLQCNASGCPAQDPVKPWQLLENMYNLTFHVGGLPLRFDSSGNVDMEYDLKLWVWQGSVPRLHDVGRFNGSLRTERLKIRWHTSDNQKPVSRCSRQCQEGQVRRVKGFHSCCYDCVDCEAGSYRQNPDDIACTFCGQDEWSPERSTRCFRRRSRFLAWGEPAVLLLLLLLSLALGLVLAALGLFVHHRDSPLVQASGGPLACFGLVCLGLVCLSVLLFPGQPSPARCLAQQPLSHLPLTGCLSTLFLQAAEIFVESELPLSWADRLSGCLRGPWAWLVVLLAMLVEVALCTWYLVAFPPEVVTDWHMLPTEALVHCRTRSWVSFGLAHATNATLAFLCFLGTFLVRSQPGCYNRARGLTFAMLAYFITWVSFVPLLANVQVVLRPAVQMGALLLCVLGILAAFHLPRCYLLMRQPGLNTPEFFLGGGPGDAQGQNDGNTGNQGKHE
In words: Screening for sweet enhancers: FLIPR calcium assay in hT1R2/R3-mammalian Gal5 cells, leftward shift of sweetener EC50. Type of data set: cell-based. The note with it: compound at 10 μM; sweetener sucralose. On the procedure: hT1R2/R3-mammalian Gal5 cells were seeded in 384-well-clear bottom plates (Fisher) at a density of ˜32,000 cells/well and grown overnight. On the day of the experiment, hT1R2/R3-mammalian Gal5 were loaded with the calcium indicator Fluo3AM ([…]) (Invitrogen, Carlsbad, Calif.) in D-PBS (Invitrogen, Carlsbad, Calif.) using a Multidrop. Cells were incubated for 1 hour at room temperature and excess dye was washed out with D-PBS using an EMBLA cell washer (Molecular Devices, Sunnyvale, Calif.), leaving a residual volume of […]. Sweeteners and test compounds were prepared at 4× final concentration and mixed 1:1 in a 384-well Greiner plate (bringing the sweeteners and test compounds concentrations down to 2× final concentration). After 30 minutes of rest time at room temperature, Fluo3AM-loaded cell plates, and the sweetener/compound plate mixture were loaded into a Fluorometric Imaging Plate Reader (FLIPR) (Molecular Devices, Sunnyvale, Calif.). Imaging was performed using a 480 nm excitation and a 535 emission and was initiated with the acquisition of the baseline fluorescence for a period of 7 seconds. Then, the cells were stimulated on line with addition of […] stimuli/well. Subsequent images were acquired every other second for a period of 2 minutes. Raw fluorescence counts were then normalized in each well (using custom made data import software) by calculating delta F/f values (maximum fluorescent count obtained after stimulation−minimal fluorescent count obtained before stimulation/minimal fluorescent count obtained before stimulation). EC50s were determined using a non-linear regression algorithm (GraphPad PRISM, San Diego, Calif.), where the Hill slope, bottom asymptotes and top asymptotes were allow to vary. Enhancement properties of test compounds were quantified by determining the magnitude of the leftward shift in the sweeteners EC50 values (or an EC50 ratio): the value of the EC50 measured in the absence of the enhancer divided by the value of the EC50 measured in the presence of the enhancer).
The present compounds have been tested and shown sweet taste enhancing activities for sucrose, sucralose, and/or fructose as shown in Table E (EC50 ratio for sucrose at about 10 μM), Table F (EC50 ratio for sucralose at about 10 μM), and Table H (EC50 ratio for fructose at about 50 µM). […] The compounds listed in Tables E, F and H are Examples described above. For example, Compound C6 listed in Tables E and F is Example 18 described above.
For the compound `Cc1nc2cccc(OCC(C)(C)C(=O)NCC(C)C)c2c(N)c1C(=O)O` [Compound C6, 4-amino-5-(3-(isobutylamino)-2,2-dimethyl-3-oxopropoxy)-2-methylquino-line-3-carboxylic acid], the “EC50 Ratio, Sucralose Enhancement” value was determined as 3.8.
`Cc1nc2cccc(OCC(C)(C)NC(=O)CC(C)C)c2c(N)c1C(=O)O` [Compound O5]: the “EC50 Ratio, Sucralose Enhancement” value stood at 4.3.

The same data set, now with this note: compound at 10 μM; sweetener sucrose.
Regarding `Cc1nc2cccc(OCC(C)(C)C(=O)NCC(C)C)c2c(N)c1C(=O)O` [Compound C6, 4-amino-5-(3-(isobutylamino)-2,2-dimethyl-3-oxopropoxy)-2-methylquino-line-3-carboxylic acid], the “EC50 Ratio, Sucrose Enhancement” value was found to be 11.0.
The same measure, in the same setting: the value for `Cc1nc2cccc(OCC(C)(C)NC(=O)CC(C)C)c2c(N)c1C(=O)O` [Compound O5] was 6.0.

Still in this data set, the particulars now being: compound at 50 μM; sweetener fructose.
As to `Cc1nc2cccc(OCC(C)(C)NC(=O)CC(C)C)c2c(N)c1C(=O)O` [Compound O5], the “EC50 Ratio, Fructose Enhancement” value is reported as 2.6.

Test system in another data set: not given
Test: not given
Details: not given
On to `Cc1nc2cccc(OCC(C)(C)C(=O)NCC(C)C)c2c(N)c1C(=O)O` [Compound C6, 4-amino-5-(3-(isobutylamino)-2,2-dimethyl-3-oxopropoxy)-2-methylquino-line-3-carboxylic acid], for which the melting point (usually the temperature of the solid-liquid transition) fell in the range of 176 to 179 °C.
On the same count and under the same terms, the value for `Cc1nc2cccc(OCC(C)(C)C(=O)NC3CC3)c2c(N)c1C(=O)O` [Example 2, 4-amino-5-(3-(cyclopropylamino)-2,2-dimethyl-3-oxopropoxy)-2-methyl-quinoline-3-carboxylic acid] was 227 to 229 °C; that for `Cc1nc2cccc(OCC(C)(C)C(=O)NC3CCC3)c2c(N)c1C(=O)O` [Example 3, 4-amino-5-(3-(cyclobutylamino)-2,2-dimethyl-3-oxopropoxy)-2-methylquino-line-3-carboxylic acid] was 183 to 187 °C; that for `Cc1nc2cccc(O[C@H]3CC[C@H](NC(=O)C(C)C)CC3)c2c(N)c1C(=O)O` [Example 4, 4-amino-5-(((1,4)-trans-4-isobutyramidocyclohexyl)oxy)-2-methylquinoline-3-carboxylic acid] was 183 to 185 °C.
The same measure, in the same setting: the value for `Cc1nc2cccc(OCC(C)(C)NC(=O)CC(C)C)c2c(N)c1C(=O)O` [Example 5, 4-amino-2-methyl-5-(2-methyl-2-(3-methylbutanamido)propoxy)quinoline-3-carboxylic acid] was 195 to 198 °C.
For the compound `Cc1nc2cccc(OCC(C)(C)NC(=O)C(C)C)c2c(N)c1C(=O)O` [Example 6, 4-amino-5-(2-isobutyramido-2-methylpropoxy)-2-methylquinoline-3-carboxylic acid], the melting point lay within 184 to 186 °C.
On the same count and under the same terms, the value for `Cc1nc2cccc(OCC(C)(C)NC(=O)C3CCOCC3)c2c(N)c1C(=O)O` [Example 7, 4-amino-2-methyl-5-(2-methyl-2-(tetrahydro-2H-pyran-4-carboxamido)-propoxy)quinoline-3-carboxylic acid] was 170 to 173 °C.
In the case of `CCC(=O)NC(C)(C)COc1cccc2nc(C)c(C(=O)O)c(N)c12` [Example 8, 4-amino-2-methyl-5-(2-methyl-2-propionamidopropoxy)quinoline-3-carboxylic acid], the melting point fell in the range of 189 to 193 °C.
Still for that read-out and setting: the value for `Cc1nc2cccc(OCC(C)(C)NC(=O)C3CCC3)c2c(N)c1C(=O)O` [Example 9, 4-amino-5-(2-(cyclobutanecarboxamido)-2-methylpropoxy)-2-methylquino-line-3-carboxylic acid] was 186 to 190 °C; that for `Cc1nc2cccc(OC3CCN(C(=O)C(C)C)CC3)c2c(N)c1C(=O)O` [Example 10, 4-amino-5-((1-isobutyrylpiperidin-4-yl)oxy)-2-methylquinoline-3-carboxylic acid] was 184 to 186 °C; that for `CCNC(=O)C(C)(C)COc1cccc2nc(C)c(C(=O)O)c(N)c12` [Example 12, 4-amino-5-(3-(ethylamino)-2,2-dimethyl-3-oxopropoxy)-2-methylquinoline-3-carboxylic acid] was 168 to 170 °C.
The compound `Cc1nc2cccc(OCC(C)(C)NC(=O)CC3CCOCC3)c2c(N)c1C(=O)O` [Example 13, 4-amino-2-methyl-5-(2-methyl-2-(2-(tetrahydro-2H-pyran-4-yl)acetamido)-propoxy)quinoline-3-carboxylic acid] registered a melting point of 175 to 178 °C.
The same measure, in the same setting: the value for `Cc1nc2cccc(OCC(C)(C)C(=O)NCC3CC3)c2c(N)c1C(=O)O` [Example 14, 4-amino-5-(3-((cyclopropylmethyl)amino)-2,2-dimethyl-3-oxopropoxy)-2-methylquinoline-3-carboxylic acid] was 177 to 179 °C.
Same read-out and setting: the value for `CCCCNC(=O)C(C)(C)COc1cccc2nc(C)c(C(=O)O)c(N)c12` [Example 15, 4-amino-5-(3-(butylamino)-2,2-dimethyl-3-oxopropoxy)-2-methylquinoline-3-carboxylic acid] was 195 to 199 °C; that for `CCC(CC)NC(=O)C(C)(C)COc1cccc2nc(C)c(C(=O)O)c(N)c12` [Example 16, 4-amino-5-(2,2-dimethyl-3-oxo-3-(pentan-3-ylamino)propoxy)-2-methyl-quinoline-3-carboxylic acid] was 172 to 174 °C; that for `Cc1nc2cccc(OCC(C)(C)NC(=O)CN3CCOCC3)c2c(N)c1C(=O)O` [Example 17, 4-amino-2-methyl-5-(2-methyl-2-(2-morpholinoacetamido)propoxy)quinoline-3-carboxylic acid] was 173 to 175 °C.
`Cc1nc2cccc(OCC(C)(C)C(=O)NCC3CCC3)c2c(N)c1C(=O)O` [Example 19, 4-amino-5-(3-((cyclobutylmethyl)amino)-2,2-dimethyl-3-oxopropoxy)-2-methylquinoline-3-carboxylic acid] came in with a melting point of 170 to 172 °C.
The same measure, in the same setting: the value for `CCC(=O)N1CCC(COc2cccc3nc(C)c(C(=O)O)c(N)c23)CC1` [Example 21, 4-amino-2-methyl-5-((1-propionylpiperidin-4-yl)methoxy)quinoline-3-carboxylic acid] was 168 to 170 °C; that for `CNC(=O)[C@H]1CC[C@H](Oc2cccc3nc(C)c(C(=O)O)c(N)c23)CC1` [Example 22, 4-amino-2-methyl-5-(((1,4)-trans-4-(methylcarbamoyl)cyclohexyl)oxy)quinoline-3-carboxylic acid] was 195 to 198 °C.

The record behind these values is patent publication US9834544B2, “Sweet flavor modifier” (SENOMYX, INC., priority 2011, dated 2017).
